Assay: xn = mol fraction of the nth substance listed
Details: 298.15 K, 101 kPa, Liquid, Vibrating tube method

CCC(C)Cl (stereo not drawn) [2-chlorobutane] + CC(C)CO
Details	mass density [kg/m3]
x1 = 0.0579	801.82
x1 = 0.1152	805.77
x1 = 0.2274	813.51
x1 = 0.3166	819.67
x1 = 0.4235	827.01
x1 = 0.4896	831.53
x1 = 0.5564	836.12
x1 = 0.6097	839.79
x1 = 0.6872	845.08
x1 = 0.7523	849.59
x1 = 0.809	853.54
x1 = 0.8487	856.33
x1 = 0.8975	859.77
x1 = 0.9293	862.05
x1 = 0.9638	864.55
x1 = 1	867.21

CC(C)CO [2-methyl-1-propanol] + CCCCOC(C)=O
Details	mass density [kg/m3]
x2 = 0	797.82

CCCCOC(C)=O [butyl ethanoate] + CCC(C)Cl
Details	mass density [kg/m3]
x2 = 0	876.2

CCCCOC(C)=O [butyl ethanoate] + CC(C)CO
Details	mass density [kg/m3]
x1 = 0.0589	802.41
x1 = 0.1065	806.12
x1 = 0.1907	812.7
x1 = 0.272	819.03
x1 = 0.3894	828.2
x1 = 0.4427	832.34
x1 = 0.5277	838.96
x1 = 0.607	845.14
x1 = 0.6829	851.07
x1 = 0.7405	855.58
x1 = 0.8166	861.57
x1 = 0.87	865.79
x1 = 0.9312	870.67
x1 = 1	876.2

CCC(C)Cl (stereo not drawn) [2-chlorobutane] + CCCCOC(C)=O
Details	mass density [kg/m3]
x1 = 0.0787	875.55
x1 = 0.1618	874.83
x1 = 0.233	874.2
x1 = 0.325	873.36
x1 = 0.3861	872.8
x1 = 0.4512	872.2
x1 = 0.506	871.7
x1 = 0.5902	870.94
x1 = 0.6656	870.27
x1 = 0.7352	869.65
x1 = 0.7862	869.19
x1 = 0.8516	868.6
x1 = 0.8961	868.19
x1 = 0.9458	867.73
x1 = 1	867.21

CC(C)CO [2-methyl-1-propanol] + CCC(C)Cl
Details	mass density [kg/m3]
x2 = 0	797.82

Source: the NIST ThermoML archive (doi:10.1016/j.jct.2011.05.017)
